Test [1] has as its target Transcription factor p65 (Homo sapiens) (UniProt Q04206). Kind of test: Induction of NF-kappaB p65 nuclear translocation in HUVEC cells by immunostaining. In kind it is cell-based.
For test [2] the target is unchanged. Kind of test: Potentiation of TNF-alpha-induced NF-kappaB p65 nuclear translocation in HUVEC cells by immunostaining. The class given is cell-based.

The structures appear in SMILES notation. Activity calls are given as the source filed them. No cut-off for these calls is given here.

Chain of Transcription factor p65 (Homo sapiens) (Q04206 whole entry): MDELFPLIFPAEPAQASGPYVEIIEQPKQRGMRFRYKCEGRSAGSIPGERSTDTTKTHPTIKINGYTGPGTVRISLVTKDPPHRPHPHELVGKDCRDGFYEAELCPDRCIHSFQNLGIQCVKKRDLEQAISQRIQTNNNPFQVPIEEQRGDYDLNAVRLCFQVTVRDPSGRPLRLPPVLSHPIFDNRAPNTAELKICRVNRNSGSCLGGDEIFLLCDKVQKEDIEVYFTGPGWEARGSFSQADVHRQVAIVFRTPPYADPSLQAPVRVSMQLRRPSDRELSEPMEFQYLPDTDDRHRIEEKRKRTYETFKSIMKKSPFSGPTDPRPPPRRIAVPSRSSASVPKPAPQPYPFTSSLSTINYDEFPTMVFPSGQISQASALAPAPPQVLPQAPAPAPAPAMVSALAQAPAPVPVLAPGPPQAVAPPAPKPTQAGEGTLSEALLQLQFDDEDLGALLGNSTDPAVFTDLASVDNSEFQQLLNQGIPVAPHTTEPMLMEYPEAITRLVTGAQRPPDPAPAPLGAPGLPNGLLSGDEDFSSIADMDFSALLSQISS

For the molecule `COc1ccc2nc(-c3cccs3)nc(NCCN3CCOCC3)c2c1`, the outcome in test [1] and in test [2] was inactive.
For the molecule `COc1ccc2nc(-c3cccs3)nc(NCc3ccccc3Cl)c2c1`, the outcome in test [1] and in test [2] was inactive.
For `COc1ccc2nc(-c3cccs3)nc(NNS(=O)(=O)c3ccc(C)cc3)c2c1`, the outcome in test [1] and in test [2] was inactive.
`COc1cccc2nc(-c3cccs3)nc(NN3C(=O)CC(C)C3=O)c12` (configuration not stated): the result in test [1] and in test [2] was inactive.
`COc1ccc(CCNc2nc(-c3cccs3)nc3ccc(OC)cc23)cc1`: the outcome in test [1] and in test [2] was inactive.
As to `COc1ccc2nc(-c3cccs3)nc(N3CCOCC3)c2c1`, the outcome in test [1] and in test [2] was inactive.

Source of the values: ChEMBL document CHEMBL1136844, “Discovery of novel small molecule cell type-specific enhancers of NF-kappaB nuclear translocation” (Bioorg Med Chem Lett, 2009).
